Reference: publication PMC8697972, “New Auranofin Analogs with Antibacterial Properties against Burkholderia Clinical Isolates” (Antibiotics, 2021)
Values after ≈ are worked out from the molar mass of the structure shown. Read-outs that look alike come from different tables or passages of the source.

Columns and labels:
[1] = test system: B. ubonensis LMG 20358; assay type: cell-based, Burkholderia ubonensis
[2] = test system: B. contaminans FFH-2050MA; assay type: cell-based, Burkholderia contaminans
[3] = test system: B. dolosa CEP021; assay type: cell-based, Burkholderia dolosa
[4] = test system: B. multivorans ATCC17616; assay type: cell-based, Burkholderia multivorans
[5] = test system: B. contaminans MF16; assay type: cell-based, Burkholderia contaminans
[6] = test system: B. lata BCC6; assay type: cell-based, Burkholderia lata
[7] = test system: B. contaminans FFH-4004; assay type: cell-based, Burkholderia contaminans
[8] = test system: B. cenocepacia K56-2; assay type: cell-based, Burkholderia cenocepacia; conditions: 18 h
[9] = test system: B. cenocepacia 140485; assay type: cell-based, Burkholderia cenocepacia
[10] = test system: Burkholderia cenocepacia K56-2; test: Time kill assays (exponential and stationary phase); conditions: time kill, 1×, 2×, 4× MIC (DOX 4× MIC), 6 h
[11] = test system: C. elegans DH26; conditions: for Percent survival of C. elegans: 24 h; for Survival100/MIC Ratio: highest concentration with 100 percent survival divided by the compound's MIC
[12] = test system: members of the Bcc; test: MIC, summary over Bcc panel; assay type: cell-based, Burkholderia cepacia complex
[13] = test system: Galleria mellonella larvae; test: Galleria toxicity
[14] = test system: B. cenocepacia K56-2; test: Persister frequency assay; conditions: 24 h
[15] = B. cenocepacia K56-2, CAMHB, 37 °C
[16] = Burkholderia ubonensis, LMG20358
[17] = Burkholderia contaminans, FFH2050MA
[18] = Burkholderia multivorans, ATCC17616
[19] = Burkholderia contaminans, FFH4004
[20] = Burkholderia cenocepacia, 140485

Question: What does the source list for CC[P+](CC)(CC)[Au-][S]C1OC(CO)C(O)C(O)C1O (mixture of isomers) [WB-16-EO9899]?
Answer: MIC ([1]; B. ubonensis LMG 20358): > 128 µg/mL; MIC ([2]; B. contaminans FFH-2050MA): 128 µg/mL; MIC ([3]; B. dolosa CEP021): > 128 µg/mL; MIC ([4]; B. multivorans ATCC17616): 128 µg/mL; MIC ([5]; B. contaminans MF16): 128 µg/mL; MIC ([6]; B. lata BCC6): 128 µg/mL; MIC ([7]; B. contaminans FFH-4004): > 128 µg/mL; MIC [8, 15]: > 128 µg/mL; MIC ([9]; B. cenocepacia 140485): 32 µg/mL

Question: How did the MIC ([1]; B. ubonensis LMG 20358) turn out when C[P+](C)(C)[Au-][S]CC(O)CO (racemic) [WB-19-HL4171] was run?
Answer: >128 µg/mL

Question: And the MIC ([2]; B. contaminans FFH-2050MA)?
Answer: 32 µg/mL

Question: And the MIC ([3]; B. dolosa CEP021)?
Answer: 64 µg/mL

Question: What about the MIC ([4]; B. multivorans ATCC17616) of the same compound?
Answer: 32 µg/mL

Question: And the MIC ([5]; B. contaminans MF16)?
Answer: 64 µg/mL

Question: What about the MIC ([6]; B. lata BCC6) of the same compound?
Answer: 32 µg/mL

Question: What about the MIC ([7]; B. contaminans FFH-4004) of the same compound?
Answer: 32 µg/mL

Question: What about the MIC [8, 15] of the same compound?
Answer: 32 µg/mL

Question: And the MIC ([9]; B. cenocepacia 140485)?
Answer: 16 µg/mL

Question: CC(C)(O/N=C(\C(=O)N[C@@H]1C(=O)N2C(C(=O)[O-])=C(C[n+]3ccccc3)CS[C@H]12)c1csc(N)n1)C(=O)O [CAZ, ceftazidime, reference compound] was tested. Which MIC [1, 16] did it give?
Answer: 16 µg/mL (≈ 29.3 µM)

Question: And the MIC [2, 17]?
Answer: 8 µg/mL (≈ 14.6 µM)

Question: And the MIC ([3]; Burkholderia dolosa, CEP021)?
Answer: 16 µg/mL (≈ 29.3 µM)

Question: What about the MIC [4, 18] of the same compound?
Answer: 16 µg/mL (≈ 29.3 µM)

Question: What about the MIC ([5]; Burkholderia contaminans, MF16) of the same compound?
Answer: 32 µg/mL (≈ 58.5 µM)

Question: What about the MIC ([6]; Burkholderia lata, BCC6) of the same compound?
Answer: 64 µg/mL (≈ 117 µM)

Question: And the MIC [7, 19]?
Answer: 8 µg/mL (≈ 14.6 µM)

Question: What about the MIC ([8]; Burkholderia cenocepacia) of the same compound?
Answer: 32 µg/mL (≈ 58.5 µM)

Question: And the MIC [9, 20]?
Answer: 8 µg/mL (≈ 14.6 µM)

Question: What does the source list for C[C@H]1c2cccc(O)c2C(=O)C2=C(O)[C@]3(O)C(=O)C(C(N)=O)=C(O)[C@@H](N(C)C)[C@@H]3[C@@H](O)[C@@H]21 [DOX, doxycycline, reference compound]?
Answer: MIC [1, 16]: 4 µg/mL (≈ 9 µM); killing of stationary (non-replicating) phase cells [10]: unable to kill cells; MIC [2, 17]: 2 µg/mL (≈ 4.5 µM); MIC ([3]; Burkholderia dolosa, CEP021): 16 µg/mL (≈ 36 µM); Percent survival of C. elegans ([11]; 4 μg/mL): 100%; Percent survival of C. elegans ([11]; 8 μg/mL): 97.4%; Percent survival of C. elegans ([11]; 16 μg/mL): 100%; Percent survival of C. elegans ([11]; 32 μg/mL): 98.2%; Percent survival of C. elegans ([11]; 64 μg/mL): 100%; Percent survival of C. elegans ([11]; 128 μg/mL): 91.5%; Percent survival of C. elegans ([11]; 256 μg/mL): 79.5%; Survival100/MIC Ratio [11]: 16; MIC ([12]; Burkholderia cepacia, read-out: MIC values against some isolates from the Bcc, lowest values, some isolates): 1 µg/mL (≈ 2.25 µM); MIC values against some isolates from the Bcc ([12]; lowest values, some isolates): 2 µg/mL (≈ 4.5 µM); MIC [4, 18]: 2 µg/mL (≈ 4.5 µM); MIC ([5]; Burkholderia contaminans, MF16): 16 µg/mL (≈ 36 µM); MIC ([6]; Burkholderia lata, BCC6): 4 µg/mL (≈ 9 µM); MIC [7, 19]: 8 µg/mL (≈ 18 µM); Galleria Survival ([13]; 1.0 mg/kg, 24 h): 96.7%; Galleria Survival ([13]; 1.0 mg/kg, 48 h): 96.7%; Galleria Survival ([13]; 1.0 mg/kg, 72 h): 96.7%; Galleria Survival ([13]; 2.0 mg/kg, 24 h): 93.3%; Galleria Survival ([13]; 2.0 mg/kg, 48 h): 93.3%; Galleria Survival ([13]; 2.0 mg/kg, 72 h): 93.3%; Galleria Survival ([13]; 5.0 mg/kg, 24 h): 93.3%; Galleria Survival ([13]; 5.0 mg/kg, 48 h): 90.0%; Galleria Survival ([13]; 5.0 mg/kg, 72 h): 90.0%; Galleria Survival ([13]; 10.0 mg/kg, 24 h): 93.3%; Galleria Survival ([13]; 10.0 mg/kg, 48 h): 93.3%; Galleria Survival ([13]; 10.0 mg/kg, 72 h): 93.3%; MIC ([8]; Burkholderia cenocepacia): 4 µg/mL (≈ 9 µM); MIC [9, 20]: 1 µg/mL (≈ 2.25 µM)

Question: How did the MIC [1, 16] turn out when C[C@@H](O)[C@H]1C(=O)N2C(C(=O)O)=C(S[C@@H]3CN[C@H](C(=O)N(C)C)C3)[C@H](C)[C@H]12 [MEM, meropenem, reference compound] was run?
Answer: 16 µg/mL (≈ 41.7 µM)

Question: And the MIC [2, 17]?
Answer: 4 µg/mL (≈ 10.4 µM)

Question: And the MIC ([3]; Burkholderia dolosa, CEP021)?
Answer: 8 µg/mL (≈ 20.9 µM)

Question: What about the “Percent survival of C. elegans” value ([11]; 4 μg/mL) of the same compound?
Answer: 100%

Question: What about the “Percent survival of C. elegans” value ([11]; 8 μg/mL) of the same compound?
Answer: 100%

Question: What about the “Percent survival of C. elegans” value ([11]; 16 μg/mL) of the same compound?
Answer: 100%

Question: What about the “Percent survival of C. elegans” value ([11]; 32 μg/mL) of the same compound?
Answer: 100%

Question: And the “Percent survival of C. elegans” value ([11]; 64 μg/mL)?
Answer: 100%

Question: And the “Percent survival of C. elegans” value ([11]; 128 μg/mL)?
Answer: 97.4%

Question: And the “Percent survival of C. elegans” value ([11]; 256 μg/mL)?
Answer: 93.2%

Question: And the “Survival100/MIC Ratio” value [11]?
Answer: 4

Question: What about the “Survival100/MIC Ratio” value ([11]; listed as meropenem) of the same compound?
Answer: four

Question: And the MIC [4, 18]?
Answer: 4 µg/mL (≈ 10.4 µM)

Question: And the MIC ([5]; Burkholderia contaminans, MF16)?
Answer: 8 µg/mL (≈ 20.9 µM)

Question: What about the MIC ([6]; Burkholderia lata, BCC6) of the same compound?
Answer: 4 µg/mL (≈ 10.4 µM)

Question: What about the MIC [7, 19] of the same compound?
Answer: 8 µg/mL (≈ 20.9 µM)

Question: What about the MIC ([8]; Burkholderia cenocepacia) of the same compound?
Answer: 16 µg/mL (≈ 41.7 µM)

Question: And the MIC [9, 20]?
Answer: 16 µg/mL (≈ 41.7 µM)

Question: And the “persister frequency (percent survival)” value ([14]; 5× MIC)?
Answer: low amount of persisters

Question: And the “persister frequency (percent survival)” value ([14]; 10× MIC)?
Answer: low amount of persisters

Question: What about the “persister frequency (percent survival)” value ([14]; 5× and 10× MIC tested, concentration not told apart) of the same compound?
Answer: 5–7%

Question: What does the source list for NC[C@H]1O[C@H](O[C@H]2[C@H](O)[C@@H](O[C@H]3O[C@H](CO)[C@@H](O)[C@H](N)[C@H]3O)[C@H](N)C[C@@H]2N)[C@H](N)C[C@@H]1O [TOB, tobramycin, reference compound]?
Answer: MIC [1, 16]: 128 µg/mL (≈ 274 µM); MIC [2, 17]: 128 µg/mL (≈ 274 µM); MIC ([3]; Burkholderia dolosa, CEP021): 128 µg/mL (≈ 274 µM); MIC [4, 18]: 64 µg/mL (≈ 137 µM); MIC ([5]; Burkholderia contaminans, MF16): 32 µg/mL (≈ 68.4 µM); MIC ([6]; Burkholderia lata, BCC6): 128 µg/mL (≈ 274 µM); MIC [7, 19]: 64 µg/mL (≈ 137 µM); MIC ([8]; Burkholderia cenocepacia): 512 µg/mL (≈ 1100 µM); MIC [9, 20]: 128 µg/mL (≈ 274 µM)
